Here are results for five compounds from patent publication US20230114241A1, “METHODS OF TREATING EPILEPSY USING THE SAME” (Trevena, Inc., priority 2019, published 2023).

Data set [1] has as its target T1, human sphingosine-1-phosphate receptor 1 (S1P1) (Homo sapiens, UniProt P21453). Put plainly: Inhibition of cAMP production (HTRF cAMP HiRange), S1P1 CHO-K1 cells. It is filed as cell-based. The note with it: for Emax: CHO-K1, efficacy normalized to maximum efficacy of fingolimod, read-out: hS1P1 CAMP SPAN; for EC50: read-out: hS1P1 CAMP pEC50 (converted). Put shortly: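 Intracellular cAMP changes read by TR-FRET (HTRF HiRange, 1 h room temperature) after 30 min compound exposure at 37 °C. Cells: overnight-plated CHO-K1 stably expressing tagged human S1P1 with EA-β-arrestin2. Responses normalized to fingolimod.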
Target sequence in this assay (P21453 whole entry): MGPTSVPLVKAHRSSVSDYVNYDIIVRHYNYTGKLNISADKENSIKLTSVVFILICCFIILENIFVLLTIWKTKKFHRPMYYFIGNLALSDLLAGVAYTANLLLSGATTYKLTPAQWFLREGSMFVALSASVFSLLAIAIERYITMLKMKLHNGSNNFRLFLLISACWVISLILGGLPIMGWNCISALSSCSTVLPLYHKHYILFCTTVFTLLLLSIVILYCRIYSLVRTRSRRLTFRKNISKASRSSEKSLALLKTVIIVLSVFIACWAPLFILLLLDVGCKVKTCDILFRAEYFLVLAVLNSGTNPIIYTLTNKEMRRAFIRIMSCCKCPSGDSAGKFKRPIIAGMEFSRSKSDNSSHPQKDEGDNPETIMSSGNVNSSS
Background: Changes in cAMP serve as a functional read-out for many G protein-coupled receptors.

The target in data set [2] is T1, human sphingosine-1-phosphate receptor 1 (S1P1). Put plainly: β-Arrestin2 recruitment assay (PathHunter), S1P1 CHO-K1 cells. It counts as cell-based. The following applies: for Emax: efficacy normalized to maximum efficacy of fingolimod, read-out: hS1P1 B-arrestin2 SPAN; for EC50: β-arrestin2 recruitment, read-out: hS1P1 B-arrestin2 pEC50 (converted). The method, boiled down: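 Agonist-driven β-arrestin2 recruitment measured by β-galactosidase complementation after 60 min compound exposure at 37 °C and 1 h detection at room temperature. Cells: stable CHO-K1 line expressing tagged human S1P1 with EA-β-arrestin2, plated the night before. Data expressed relative to fingolimod.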
Target sequence in this assay (P21453 whole entry): as above
Target sequence in this assay (P32121 whole entry partner): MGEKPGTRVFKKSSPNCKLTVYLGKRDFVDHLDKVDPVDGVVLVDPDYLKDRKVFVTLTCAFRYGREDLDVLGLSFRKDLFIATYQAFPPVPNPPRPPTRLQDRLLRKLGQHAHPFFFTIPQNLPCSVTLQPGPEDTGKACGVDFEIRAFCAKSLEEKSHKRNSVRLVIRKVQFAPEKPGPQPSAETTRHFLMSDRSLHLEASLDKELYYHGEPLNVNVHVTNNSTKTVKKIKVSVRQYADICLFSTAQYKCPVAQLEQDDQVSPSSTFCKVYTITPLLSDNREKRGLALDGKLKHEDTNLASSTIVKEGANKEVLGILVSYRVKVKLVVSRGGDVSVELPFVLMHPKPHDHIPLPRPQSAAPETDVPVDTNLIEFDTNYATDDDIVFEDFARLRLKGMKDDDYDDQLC
A general note: Activated receptors often draw arrestin, which recruitment assays turn into a signal.

Data set [3] addresses human sphingosine-1-phosphate receptor 2 (S1P2) (Homo sapiens, UniProt O95136). Put plainly: Selectivity: inositol monophosphate production (IP-one), S1P2 CHO-K1 cells. The note with it: for Emax: CHO-K1, efficacy normalized to maximal efficacy of CYM5520, read-out: hS1P2 IP-one SPAN; for EC50: inositol monophosphate accumulation, read-out: hS1P2 IP-one pEC50 (converted). It is filed as cell-based.

The target in data set [4] is human sphingosine-1-phosphate receptor 3 (S1P3) (Homo sapiens, UniProt Q99500). Put plainly: Selectivity: inhibition of cAMP production (HTRF), S1P3 CHO-K1 cells. It counts as cell-based. The note with it: for Emax: CHO-K1, efficacy normalized to maximal efficacy of fimgolimod, read-out: hS1P3 cAMP SPAN; for EC50: inhibition of cAMP production, read-out: hS1P3 cAMP pEC50 (converted).

Data set [5] has as its target sphingosine-1-phosphate receptor 5 (S1P5) (Homo sapiens, UniProt Q9H228). Put plainly: Selectivity: inhibition of cAMP production (HTRF), S1P5 CHO-K1 cells. It is filed as cell-based. The following applies: for Emax: CHO-K1, efficacy normalized to maximal efficacy of fimgolimod, read-out: hS1P5 cAMP SPAN; for EC50: inhibition of cAMP production, read-out: hS1P5 cAMP pEC50 (converted). Here is the method: Cell Culturing and Assay Plating Cell lines were cultured in AssayComplete™ Media 6 (DiscoverX Corporation, Cat #: 920018GF2) at 37° C. and 5% CO2 in a humidified CO2 and temperature-controlled incubator. To begin assay plating, cells were washed with Dulbecco's phosphate buffered saline (CellGro, Cat #: 21-031-CV) and lifted from the culturing flask by incubation (37° C., 5 min) with CellStripper (Cellgro, Cat #: 25-056-CI). […] Plated cells were incubated overnight at 37° C. and 5% CO2 in a humidified CO2 and temperature-controlled incubator. Detecting Inhibition of cAMP Production
S1P3 and S1P5 Agonist-promoted G-protein responses were determined by measuring changes in intracellular cAMP using the HTRF® cAMP HiRange kit (CisBio, Cat #: 62AM6PEJ) based on time-resolved fluorescence resonance energy transfer (TR-FRET) technology. […] Following a 30-minute room temperature incubation the components of the cAMP HiRange kit were added as per the manufacturer's instructions. After an hour incubation at room temperature, plates were analyzed by a BMG PheraStar microplate reader.
These values are normalized to fimgolimod, a known agonist of the sphingosine-1-phosphate 3 and 5 receptor or CYM5520, a known agonist of the sphingosine-1-phosphate 2 receptor. The tables also include potency values (pEC50) for modulating discrete receptor-mediated activities (inhibition of cAMP production or inositol monophosphate accumulation).

The test system of data set [6] is peripheral blood lymphocytes. Put plainly: Lymphopenia: peripheral blood lymphocyte counts, acute and chronic s.c. dosing. The following applies: 6 mg/kg sc, 7 days, c57bl/6 mice. It is filed as in vivo. The method, boiled down: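 C57bl/6 mice given test compound s.c.: acute, single 3 mg/kg (n=5/group), sampled at set times; chronic, 3-7 days at ≥5-fold the efficacious dose (n=6-8/group), sampled 45 min to 6 h after last dose. EDTA whole-blood lymphocyte counts (10^3 cells/μl) by Advia 120, compared with vehicle.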

Another data set deals with hERG channel (Homo sapiens, UniProt Q12809). Put plainly: cell-based.
[7] abbreviates: inhibition of cAMP production, potency.
[8] abbreviates: CHO-K1, β-arrestin2 recruitment.

The structures appear in SMILES notation. Bounds are passed on as bounds.

hERG channel, sequence (Q12809 whole entry): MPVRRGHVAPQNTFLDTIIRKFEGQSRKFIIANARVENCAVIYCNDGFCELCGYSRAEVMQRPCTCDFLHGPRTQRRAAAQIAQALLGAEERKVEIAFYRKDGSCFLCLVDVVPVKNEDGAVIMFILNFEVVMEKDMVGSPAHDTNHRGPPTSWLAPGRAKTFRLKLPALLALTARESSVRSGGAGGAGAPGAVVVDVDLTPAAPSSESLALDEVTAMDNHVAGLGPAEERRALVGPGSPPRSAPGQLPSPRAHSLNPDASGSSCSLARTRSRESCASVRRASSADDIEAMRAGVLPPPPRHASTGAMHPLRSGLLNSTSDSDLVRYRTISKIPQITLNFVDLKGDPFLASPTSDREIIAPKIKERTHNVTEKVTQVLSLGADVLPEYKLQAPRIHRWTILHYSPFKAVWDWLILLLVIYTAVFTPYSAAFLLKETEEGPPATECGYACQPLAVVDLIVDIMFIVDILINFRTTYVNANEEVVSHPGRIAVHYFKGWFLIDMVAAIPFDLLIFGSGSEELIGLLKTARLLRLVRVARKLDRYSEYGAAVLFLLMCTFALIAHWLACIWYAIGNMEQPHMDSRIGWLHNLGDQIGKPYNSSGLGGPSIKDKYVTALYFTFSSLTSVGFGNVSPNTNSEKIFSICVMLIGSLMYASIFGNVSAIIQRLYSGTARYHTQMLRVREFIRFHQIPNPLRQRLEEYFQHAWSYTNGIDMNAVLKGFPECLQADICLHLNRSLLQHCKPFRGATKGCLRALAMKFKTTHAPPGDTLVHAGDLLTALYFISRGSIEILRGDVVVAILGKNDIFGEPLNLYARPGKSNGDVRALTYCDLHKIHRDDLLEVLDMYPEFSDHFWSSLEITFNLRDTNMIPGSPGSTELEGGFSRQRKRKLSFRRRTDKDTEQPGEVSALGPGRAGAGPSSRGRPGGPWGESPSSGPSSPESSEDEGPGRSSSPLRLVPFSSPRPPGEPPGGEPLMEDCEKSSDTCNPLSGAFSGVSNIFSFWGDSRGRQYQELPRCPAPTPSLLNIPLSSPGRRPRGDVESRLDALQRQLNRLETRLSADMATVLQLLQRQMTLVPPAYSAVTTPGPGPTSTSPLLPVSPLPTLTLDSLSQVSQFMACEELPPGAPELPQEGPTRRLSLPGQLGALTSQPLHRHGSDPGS
sphingosine-1-phosphate receptor 5 (S1P5), sequence (Q9H228 whole entry): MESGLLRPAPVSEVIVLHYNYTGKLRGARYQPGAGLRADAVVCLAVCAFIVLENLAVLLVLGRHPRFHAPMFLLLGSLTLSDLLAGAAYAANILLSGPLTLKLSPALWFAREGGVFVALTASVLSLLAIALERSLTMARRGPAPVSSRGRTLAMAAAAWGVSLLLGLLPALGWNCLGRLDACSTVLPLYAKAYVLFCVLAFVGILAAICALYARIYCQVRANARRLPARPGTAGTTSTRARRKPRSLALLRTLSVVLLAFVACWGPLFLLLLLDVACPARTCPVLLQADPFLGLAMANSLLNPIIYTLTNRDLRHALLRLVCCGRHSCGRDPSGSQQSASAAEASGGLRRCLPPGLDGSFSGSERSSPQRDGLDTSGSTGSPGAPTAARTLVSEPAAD
human sphingosine-1-phosphate receptor 2 (S1P2), sequence (O95136 whole entry): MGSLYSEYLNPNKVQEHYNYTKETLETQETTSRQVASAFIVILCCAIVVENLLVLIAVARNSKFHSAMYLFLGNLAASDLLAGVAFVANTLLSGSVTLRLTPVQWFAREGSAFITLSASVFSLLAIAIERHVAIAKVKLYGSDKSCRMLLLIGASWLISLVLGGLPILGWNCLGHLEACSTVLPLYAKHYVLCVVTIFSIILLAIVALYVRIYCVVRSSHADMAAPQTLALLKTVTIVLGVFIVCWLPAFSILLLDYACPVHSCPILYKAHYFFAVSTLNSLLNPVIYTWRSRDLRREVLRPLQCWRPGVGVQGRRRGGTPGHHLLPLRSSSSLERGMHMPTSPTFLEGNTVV
human sphingosine-1-phosphate receptor 3 (S1P3), sequence (Q99500 whole entry): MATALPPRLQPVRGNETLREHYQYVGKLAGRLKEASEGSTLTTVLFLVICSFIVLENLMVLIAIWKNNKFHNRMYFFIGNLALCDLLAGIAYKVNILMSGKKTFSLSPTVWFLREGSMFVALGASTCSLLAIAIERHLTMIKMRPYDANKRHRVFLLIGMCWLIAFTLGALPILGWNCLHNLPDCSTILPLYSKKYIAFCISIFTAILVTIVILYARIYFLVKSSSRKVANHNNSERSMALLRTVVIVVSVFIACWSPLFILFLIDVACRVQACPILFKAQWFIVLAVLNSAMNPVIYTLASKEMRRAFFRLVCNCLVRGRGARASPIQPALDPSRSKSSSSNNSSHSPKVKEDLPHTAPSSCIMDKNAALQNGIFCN

For orientation: IC50 means the concentration that gives 50% inhibition. A lower IC50 goes with inhibition by little substance. Consider `CC(C)n1nnc2cc(-c3nc(-c4cccc5c4OCCC5)no3)ccc21` [Compound 304, 3-chroman-8-yl-5-(1-isopropylbenzotriazol-5-yl)-1,2,4-oxadiazole], for which the Emax was under 75% in data set [1] (inhibition of cAMP production); over 75% in data set [2] (setting [8]); under 50% in data set [3]; under 50% in data set [4]; under 50% in data set [5]. Also, the EC50 in data set [1] (setting [7]) is under 0.316 µM; in data set [2] (potency), under 10 µM; in data set [3], over 10 µM; in data set [4] it was under 10 µM; in data set [5], over 10 µM. Besides, the “Lymphopenia effect (peripheral blood lymphocytes)” value in data set [6] is reported as “no change: 6 mg/kg, 7 days”. Besides, the IC50 at hERG channel was over 10 µM.
As for `CC(C)Oc1ccc(-c2ncc(-c3ccnc(O)c3)cn2)cc1C#N` [Compound 744, 5-(5-(2-hydroxy-pyridin-4-yl)pyrimidin-2-yl)-2-isopropoxy-benzonitrile], the IC50 against hERG channel was over 10 µM.
On to `N#Cc1cc(-c2nc(-c3ccc4c(c3)NC(=O)C4)no2)ccc1NCC1CC1` [Compound 497, 2-((cyclopropyl-methyl)amino)-5-(3-(2-oxoindolin-6-yl)-1,2,4-oxadiazol-5-yl)benzonitrile], for which the Emax in data set [1] and in data set [2] (CHO-K1) was over 75% in each case. The EC50 in data set [1] (inhibition of cAMP production, S1P1) is under 0.316 µM; in data set [2] (S1P1), under 10 µM. At hERG channel, the IC50 was over 10 µM.
For `COc1ccc(-c2noc(-c3ccc4c(c3)nnn4CC(C)(C)O)n2)c(C)c1` [Compound 26, 1-{5-[3-(4-methoxy-2-methylphenyl)-1,2,4-oxadiazol-5-yl]-1H-1,2,3-benzo-triazol-1-yl}-2-methylpropan-2-ol], the Emax in data set [1] (inhibition of cAMP production) is over 75%; in data set [2] (setting [8]), over 75%; in data set [3] it was under 50%; in data set [4], under 50%; in data set [5], under 50%. The EC50 in data set [1] (setting [7]) was under 0.316 µM; in data set [2] (potency) it was under 10 µM; in data set [3] it was over 10 µM; in data set [4] it was over 10 µM; in data set [5], over 10 µM. The compound further came in with an IC50 against hERG channel of over 10 µM.
On to `CC(C)Nc1ccc(-c2nc(-c3ccc4nonc4c3)no2)cc1C#N` [Compound 730, 5-[3-(2,1,3-benzoxa-diazol-5-yl)-1,2,4-oxadiazol-5-yl]-2-[(propan-2-yl)amino]benzonitrile], for which the “Lymphopenia effect (peripheral blood lymphocytes)” value in data set [6] is given as “no change: 6 mg/kg, 7 days”. The compound also had an IC50 at hERG channel of over 10 µM.
